Assay results as given in publication PMC12526275, “hERG Channel Blockade and Antagonistic Interactions of Three Steroidal Alkaloids from Fritillaria Species” (Molecules, 2025).

Columns and labels:
Assay type in all cases: cell-based
[1] = target: T1, hERG channel (human Ether-a-go-go-Related Gene, Kv11.1) (Homo sapiens, UniProt Q12809); experiment: manual whole-cell patch clamp, hERG tail currents in stably expressing HEK293 cells; IC50 extrapolated (maximum tested […])
T1 construct: gene KCNH2

[2] = target: T1, hERG channel (human Ether-a-go-go-Related Gene, Kv11.1); experiment: manual whole-cell patch clamp, hERG tail currents in stably expressing HEK293 cells
[3] = target: T2, hERG channel mutant S631A (Homo sapiens, UniProt Q12809, S631A); experiment: whole-cell patch clamp, transiently transfected HEK293 cells; inhibition at […]
T2 construct: gene KCNH2
T2 sequence (Q12809 whole entry S631A): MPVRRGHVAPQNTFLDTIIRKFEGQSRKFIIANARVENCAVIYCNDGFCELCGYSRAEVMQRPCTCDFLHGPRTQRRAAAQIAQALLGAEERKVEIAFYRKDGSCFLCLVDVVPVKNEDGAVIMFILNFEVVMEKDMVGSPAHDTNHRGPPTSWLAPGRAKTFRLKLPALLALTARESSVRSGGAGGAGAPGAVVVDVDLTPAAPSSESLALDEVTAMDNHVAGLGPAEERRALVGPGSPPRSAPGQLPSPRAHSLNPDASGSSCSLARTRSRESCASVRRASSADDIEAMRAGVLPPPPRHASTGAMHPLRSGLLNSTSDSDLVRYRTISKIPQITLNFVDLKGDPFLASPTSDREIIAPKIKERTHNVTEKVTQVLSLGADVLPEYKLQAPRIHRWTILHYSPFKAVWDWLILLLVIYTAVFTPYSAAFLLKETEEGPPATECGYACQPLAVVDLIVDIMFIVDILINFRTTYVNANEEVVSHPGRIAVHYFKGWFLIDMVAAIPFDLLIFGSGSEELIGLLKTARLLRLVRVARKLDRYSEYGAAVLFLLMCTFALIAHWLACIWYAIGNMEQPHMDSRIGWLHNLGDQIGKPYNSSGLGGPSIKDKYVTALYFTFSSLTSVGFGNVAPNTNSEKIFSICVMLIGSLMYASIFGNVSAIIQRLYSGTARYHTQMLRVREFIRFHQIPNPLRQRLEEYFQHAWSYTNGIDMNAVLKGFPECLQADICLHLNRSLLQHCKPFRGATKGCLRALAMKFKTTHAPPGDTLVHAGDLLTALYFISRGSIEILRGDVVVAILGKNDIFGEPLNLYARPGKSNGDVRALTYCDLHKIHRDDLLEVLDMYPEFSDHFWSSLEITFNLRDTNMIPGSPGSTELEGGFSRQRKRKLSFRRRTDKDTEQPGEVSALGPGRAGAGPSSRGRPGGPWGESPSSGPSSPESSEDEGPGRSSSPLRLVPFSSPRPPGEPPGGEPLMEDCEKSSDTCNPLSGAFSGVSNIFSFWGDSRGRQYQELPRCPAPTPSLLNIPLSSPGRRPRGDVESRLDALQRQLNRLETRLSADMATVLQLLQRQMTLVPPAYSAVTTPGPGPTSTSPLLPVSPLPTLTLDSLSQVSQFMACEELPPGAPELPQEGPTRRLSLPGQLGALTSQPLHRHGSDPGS

T1 sequence (Q12809 whole entry): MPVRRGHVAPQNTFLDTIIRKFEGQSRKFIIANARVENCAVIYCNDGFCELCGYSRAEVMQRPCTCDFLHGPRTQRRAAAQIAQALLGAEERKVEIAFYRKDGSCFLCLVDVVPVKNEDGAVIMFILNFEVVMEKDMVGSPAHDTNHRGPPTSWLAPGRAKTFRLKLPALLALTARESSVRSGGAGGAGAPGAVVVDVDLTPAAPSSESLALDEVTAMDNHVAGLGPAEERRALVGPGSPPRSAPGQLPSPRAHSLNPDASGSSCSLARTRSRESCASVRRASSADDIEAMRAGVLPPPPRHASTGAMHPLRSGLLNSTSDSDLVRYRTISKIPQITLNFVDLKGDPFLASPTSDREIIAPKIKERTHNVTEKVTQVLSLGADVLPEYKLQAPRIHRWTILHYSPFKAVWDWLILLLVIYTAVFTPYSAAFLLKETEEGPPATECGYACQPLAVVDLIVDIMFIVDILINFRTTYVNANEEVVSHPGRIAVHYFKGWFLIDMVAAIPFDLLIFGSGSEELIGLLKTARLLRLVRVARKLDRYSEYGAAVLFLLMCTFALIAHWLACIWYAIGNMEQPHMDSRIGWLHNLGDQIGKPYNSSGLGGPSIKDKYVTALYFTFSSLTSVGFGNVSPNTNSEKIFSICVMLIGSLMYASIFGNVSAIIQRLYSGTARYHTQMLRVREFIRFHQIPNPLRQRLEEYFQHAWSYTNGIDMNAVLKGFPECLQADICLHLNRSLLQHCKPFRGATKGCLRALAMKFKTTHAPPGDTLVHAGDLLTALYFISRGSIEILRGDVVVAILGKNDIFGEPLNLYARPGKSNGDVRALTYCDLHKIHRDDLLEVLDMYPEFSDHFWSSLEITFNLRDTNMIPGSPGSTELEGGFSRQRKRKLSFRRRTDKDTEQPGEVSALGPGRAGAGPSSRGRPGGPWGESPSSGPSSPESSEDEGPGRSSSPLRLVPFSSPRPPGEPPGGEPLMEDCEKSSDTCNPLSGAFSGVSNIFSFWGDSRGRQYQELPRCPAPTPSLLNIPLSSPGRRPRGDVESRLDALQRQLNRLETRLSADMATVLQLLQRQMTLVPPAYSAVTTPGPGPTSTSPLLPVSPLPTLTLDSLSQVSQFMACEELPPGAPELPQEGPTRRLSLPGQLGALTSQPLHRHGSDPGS

| Structure (SMILES) | IC50 [1] [µM] | IC50 [2] [µM] | inhibition at 100 µM [3] [%] |
| --- | --- | --- | --- |
| C[C@H]1CC[C@@H]2N(C1)C[C@H]1[C@@H]3C[C@H]4[C@@H](CC(=O)[C@H]5C[C@@H](O)CC[C@@]54C)[C@@H]3CC[C@H]1[C@]2(C)O [sipeimine] | ~47.6 | – | – |
| C[C@H]1CC[C@@H]2N(C1)C[C@H]1[C@@H]3C[C@H]4[C@@H](C[C@H](O)[C@H]5C[C@@H](O)CC[C@@]54C)[C@@H]3CC[C@@H]1[C@]2(C)O [peimine] | – | 26.1 ± 3.5 | – |
| C[C@H]1CC[C@@H]2N(C1)C[C@H]1[C@@H]3C[C@H]4[C@@H](CC(=O)[C@H]5C[C@@H](O)CC[C@@]54C)[C@@H]3CC[C@@H]1[C@]2(C)O [peiminine] | – | 36.8 ± 2.5 | 12.3 ± 1.4 |
